What was measured:
Adrenergic α2B Receptor = biological target: T1, Adrenergic α2B Receptor (Homo sapiens, UniProt P18089); experiment: Radioligand binding, [3H] Rauwolscine; details: compound at 10 μM
T1 construct: expressed in transfected cells; host or cells: CHO-K1 cells
T1 sequence (P18089 1-450): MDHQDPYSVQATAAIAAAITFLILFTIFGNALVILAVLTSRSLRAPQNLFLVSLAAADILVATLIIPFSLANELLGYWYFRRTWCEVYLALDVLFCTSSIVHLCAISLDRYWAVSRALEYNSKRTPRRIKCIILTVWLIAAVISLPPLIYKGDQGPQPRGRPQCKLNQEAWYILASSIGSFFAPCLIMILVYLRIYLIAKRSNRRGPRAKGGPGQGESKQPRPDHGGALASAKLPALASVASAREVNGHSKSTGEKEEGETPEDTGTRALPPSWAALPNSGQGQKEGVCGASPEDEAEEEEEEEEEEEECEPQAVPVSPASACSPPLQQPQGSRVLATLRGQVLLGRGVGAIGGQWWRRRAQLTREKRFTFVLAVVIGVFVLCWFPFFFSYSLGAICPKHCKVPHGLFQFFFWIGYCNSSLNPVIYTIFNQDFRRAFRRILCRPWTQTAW
Protocol: Compounds of the invention were subjected to specific binding assays to test their ability to bind to the receptors and transporter proteins described below.
(b) Adrenergic α2B Receptor:
• Reference: S. Uhlen et al., Eur. J. Pharmacol., 343 (1): 93-1-01 (1998) • Source: Human recombinant CHO-K1 cells • Ligand: 2.5 nM [3H]

dopamine receptors = experiment: Receptor binding studies, overall statement on dopamine receptors; set-up: species or system Human; details: conclusion from % inhibition at 10 μM
Protocol: (d) Dopamine D1 Receptor:
• Reference: Dearry et al., Nature, 347:72-76, (1990) • Source: Human recombinant CHO cells • Ligand: 1.4 nM [3H] SCH-23390 • Vehicle: 1% DMSO • Incubation time/Temp: 2 hours @ 37° C. • Incubation buffer: 50 mM Tris-HCl, pH 7.4, 150 mM NaCl, 1.4 mM ascorbic acid, 0.001% BSA • Non Specific ligand: 10 μM (+)-butaclamol • Kd: 1.4 nM • Bmax: 0.63 pmole/mg protein • Specific binding: 90% • Quantitation method: Radioligand binding • Significance criteria: ≧50% of maximum stimulation or inhibition
(e) Dopamine D2L Receptor:
• Reference: Grandy et al., Proc. Natl. Acad. Sci. USA, 86:9762-9766 (1989) • Source: Human recombinant CHO cells • Ligand: 0.16 nM [^3H]
(f) Dopamine D2S Receptor:
(g) Dopamine D3 Receptor:
• Reference: Sokoloff et al., Nature, 347:146-151, (1990) • Source: Human recombinant CHO cells • Ligand: 0.7 nM [3H]
(h) Dopamine D4.2 Receptor:
• Reference: Van Tol et al., Nature, 350:610-614 (1991) • Source: Human recombinant CHO-K1 cells • Ligand: 0.5 nM [^3H]
(i) Dopamine D4.4 Receptor:
• Reference: Van Tol et al., Nature, 350:610-614 (1991) • Source: Human recombinant CHO-K1 cells • Ligand: 1.2 nM [^3H]
(j) Dopamine D4.7 Receptor:
• Reference: Van Tol et al., Nature, 350:610-614 (1991) • Source: Human recombinant CHO-K1 cells • Ligand: 1.5 nM [^3H]

Structure (SMILES) | % inhibition, (b) α2B Receptor (Adrenergic α2B Receptor) [%] | inhibition of dopamine receptors (result in words) (dopamine receptors)
COc1cc2c(cc1O)[C@@H]1C[C@@H](O)[C@H](CC(C)C)CN1CC2 (single isomer, unassigned) [(+)-10-desmethyl-γ-dihydrotetrabenazine] | 21 | 
COc1cc2c(cc1O)[C@@H]1C[C@@H](O)[C@H](CC(C)C)CN1CC2 (single isomer, unassigned) [(−)-10-desmethyl-γ-dihydrotetrabenazine] | 44 | potent inhibitor of dopamine receptors
